# Reference: patent publication US20250282736A1, “SMALL MOLECULE MODULATORS OF HUMAN PREGNANE X RECEPTOR” (ST. JUDE CHILDREN'S RESEARCH HOSPITAL, priority 2022, published 2025)
# Like-named read-outs stand apart in the source and are kept apart here.
# Columns and labels:
# hPXR [1] = molecular target: T1, hPXR (Homo sapiens (Human), UniProt O75469); assay: hPXR binding assay; conditions: for inhibition at 10 µM: read-out: Binding (% inhibition at 10 μM)
# hPXR [2] = molecular target: T1, hPXR; assay: cell-based hPXR agonistic assay; conditions: for Agonist (% activation at 10 μM): rifampicin at 10 μM as 100% activation, DMSO (0.3%) as 0%
# hPXR [3] = molecular target: T1, hPXR; assay: cell-based hPXR antagonistic assay; conditions: for inhibition at 10 µM: read-out: Antagonist (% inhibition at 10 μM); for Antagonist (% inhibition at 10 μM): SPA70 at 10 μM with rifampicin (5 μM) as 100% inhibition, rifampicin alone (5 μM) as 0%
# hPXR [4] = molecular target: T1, hPXR; assay: cell-based hPXR inverse agonistic assay; conditions: for inhibition at 10 µM: read-out: Inverse agonist (% inhibition at 10 μM)
# [5] = read-out: Binding (IC50/μM), hPXR binding assay
# [6] = read-out: Agonist (EC50/μM), cell-based hPXR agonistic assay
# [7] = read-out: Antagonist (IC50/μM), cell-based hPXR antagonistic assay with rifampicin (5 μM)
# [8] = read-out: Inverse agonist (IC50/μM), cell-based hPXR inverse agonistic assay
# T1 sequence (O75469 whole entry): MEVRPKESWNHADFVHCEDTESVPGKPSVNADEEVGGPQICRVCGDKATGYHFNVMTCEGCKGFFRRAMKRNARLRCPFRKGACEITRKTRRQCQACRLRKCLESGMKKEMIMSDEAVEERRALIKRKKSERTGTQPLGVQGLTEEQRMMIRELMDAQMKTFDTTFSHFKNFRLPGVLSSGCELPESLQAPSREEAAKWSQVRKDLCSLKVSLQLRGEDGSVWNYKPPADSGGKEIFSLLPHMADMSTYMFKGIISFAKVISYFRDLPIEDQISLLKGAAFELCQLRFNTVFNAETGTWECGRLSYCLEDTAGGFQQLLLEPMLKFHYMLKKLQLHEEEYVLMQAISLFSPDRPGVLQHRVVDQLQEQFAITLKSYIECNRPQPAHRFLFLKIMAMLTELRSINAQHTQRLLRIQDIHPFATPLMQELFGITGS
Compound,inhibition at 10 µM (hPXR [1]),IC50 (hPXR [1]; [5]),EC50 (hPXR [2]),Agonist (% activation at 10 μM) (hPXR [2]),IC50 (hPXR [3]),IC50 (hPXR [4]),inhibition at 10 µM (hPXR [3]),inhibition at 10 µM (hPXR [4]),IC50 (hPXR [1]),EC50 (hPXR [2]; [6]),Antagonist (% inhibition at 10 μM) (hPXR [3]),IC50 (hPXR [3]; [7]),IC50 (hPXR [4]; [8])
"COc1ccc(OC)c(-n2nnc(C(=O)Nc3cc(C(C)(C)C)ccc3OCC(=O)OC(C)(C)C)c2C)c1 [B24, tert-butyl 2-(4-(tert-butyl)-2-(1-(2,5-dimethoxyphenyl)-5-methyl-1H-1,2,3-triazole-4-carboxamido)phenoxy)acetate]",74%,0.5 ± 0.2 µM,0.27 µM,(77 ± 1)%,> 30 µM,> 30 µM,,,,,,,
COc1ccc(OC)c(-n2nnc(C(=O)Nc3cc(C(C)(C)C)ccc3OCC(C)(C)C)c2C)c1 [B29],85%,0.0177 ± 0.0031 µM,> 30 µM,,0.18 µM,0.026 µM,99%,100%,,,,,
CCC(CC)Oc1ccc(C(C)(C)C)cc1NC(=O)c1nnn(-c2cc(OC)ccc2OC)c1C [B31],91%,0.0075 ± 0.0011 µM,> 30 µM,,0.015 µM,0.0016 µM,105%,111%,,,,,
COc1ccc(OC)c(-n2nnc(C(=O)Nc3cc(C(C)(C)C)ccc3OCC(C)C)c2C)c1 [B32],81%,0.018 µM,> 30 µM,,0.26 µM,,96%,89%,,,,,
"CCCC(CC)Oc1ccc(C(C)(C)C)cc1NC(=O)c1nnn(-c2cc(OC)ccc2OC)c1C (stereo not shown) [B34, N-(5-(Tert-Butyl)-2-(Hexan-3-yloxy)Phenyl)-1-(2,5-Dimethoxyphenyl)-5-Methyl-1H-1,2,3-Triazole-4-Carboxamide]",92%,0.019 µM,> 30 µM,,0.012 ± 0.003 µM,0.0023 ± 0.0008 µM,108%,147%,,,,,
COc1ccc(OC)c(-n2nnc(C(=O)Nc3cc(C(C)(C)C)ccc3N)c2C)c1 [B37],,,,(25 ± 7)%,> 30 µM,> 30 µM,,,> 30 µM,0.9 ± 0.22 µM,,,
COc1ccc(OC)c(-n2nnc(C(=O)Nc3cc(C(C)(C)C)ccc3NC(C)=O)c2C)c1 [B38],60%,3.22 ± 2.29 µM,,(60 ± 13)%,> 30 µM,> 30 µM,,,,0.99 ± 0.22 µM,,,
"COc1ccc(OC)c(-n2nnc(C(=O)Nc3ccc(NC(C)=O)c(C(C)(C)C)c3)c2C)c1 [C1, N-(4-acetamido-3-(tert-butyl)phenyl)-1-(2,5-dimethoxyphenyl)-5-methyl-1H-1,2,3-triazole-4-carboxamide]",65%,1.81 ± 0.52 µM,1.96 ± 0.19 µM,(50 ± 14)%,> 30 µM,> 30 µM,,,,,,,
"COc1ccc(OC)c(-n2nnc(C(=O)Nc3ccc(N)c(C(C)(C)C)c3)c2C)c1 [C2, N-(4-amino-3-(tert-butyl)phenyl)-1-(2,5-dimethoxyphenyl)-5-methyl-1H-1,2,3-triazole-4-carboxamide]",86%,4.12 ± 1.4 µM,,(33 ± 7)%,> 30 µM,> 30 µM,,,,0.28 µM,,,
"CNc1cc(NC(=O)c2nnn(-c3cc(OC)ccc3OC)c2C)cc(C(C)(C)C)c1 [D2, N-(3-(tert-butyl)-5-(methylamino)phenyl)-1-(2,5-dimethoxyphenyl)-5-methyl-1H-1,2,3-triazole-4-carboxamide]",,0.33 ± 0.11 µM,> 30 µM,,,,,,,,(109 ± 6)%,0.41 ± 0.13 µM,0.12 µM
"COc1ccc(OC)c(-n2nnc(C(=O)Nc3cc(N(C)C)cc(C(C)(C)C)c3)c2C)c1 [D3, N-(3-(tert-butyl)-5-(dimethylamino)phenyl)-1-(2,5-dimethoxyphenyl)-5-methyl-1H-1,2,3-triazole-4-carboxamide]",,0.27 ± 0.04 µM,> 30 µM,,,,,,,,(110 ± 3)%,0.34 µM,0.11 µM
"CCCCNc1cc(NC(=O)c2nnn(-c3cc(OC)ccc3OC)c2C)cc(C(C)(C)C)c1 [D4, N-(3-(tert-butyl)-5-(butylamino)phenyl)-1-(2,5-dimethoxyphenyl)-5-methyl-1H-1,2,3-triazole-4-carboxamide]",,0.45 ± 0.12 µM,> 30 µM,,,,,,,,,0.13 µM,0.039 ± 0.012 µM
"CCCCN(CCCC)c1cc(NC(=O)c2nnn(-c3cc(OC)ccc3OC)c2C)cc(C(C)(C)C)c1 [D5, N-(3-(tert-butyl)-5-(dibutylamino)phenyl)-1-(2,5-dimethoxyphenyl)-5-methyl-1H-1,2,3-triazole-4-carboxamide]",,0.5 ± 0.12 µM,> 30 µM,,,,,,,,(82 ± 17)%,0.62 ± 0.28 µM,0.15 µM
"COc1ccc(OC)c(-n2nnc(C(=O)Nc3cc(NC(=O)CCC(=O)O)cc(C(C)(C)C)c3)c2C)c1 [D6, 4-((3-(tert-butyl)-5-(1-(2,5-dimethoxyphenyl)-5-methyl-1H-1,2,3-triazole-4-carboxamido)phenyl)amino)-4-oxobutanoic acid]",70%,1.26 µM,> 30 µM,,22.1 ± 4.86 µM,12.7 ± 4.69 µM,25%,48%,,,,,
"COc1ccc(OC)c(-n2nnc(C(=O)Nc3cc(NCC(=O)OC(C)(C)C)cc(C(C)(C)C)c3)c2C)c1 [D8, tert-butyl (3-(tert-butyl)-5-(1-(2,5-dimethoxyphenyl)-5-methyl-1H-1,2,3-triazole-4-carboxamido)phenyl)glycinate]",81%,0.33 µM,> 30 µM,,0.46 ± 0.06 µM,0.12 µM,104%,127%,,,,,
COc1ccc(OC)c(-n2nnc(C(=O)Nc3cc(NCC(=O)O)cc(C(C)(C)C)c3)c2C)c1 [D9],61%,3.53 ± 0.58 µM,> 30 µM,,17.3 ± 1.39 µM,1.7 µM,65%,107%,,,,,
COc1ccc(OC)c(-n2nnc(C(=O)Nc3cc(NCCN)cc(C(C)(C)C)c3)c2C)c1 [D10],,,> 30 µM,,11.9 ± 2.27 µM,7.09 ± 1.37 µM,104%,130%,> 30 µM,,,,
COc1ccc(OC)c(-n2nnc(C(=O)Nc3cc(N=C=S)cc(C(C)(C)C)c3)c2C)c1 [D11],47%,2.6 ± 0.51 µM,> 30 µM,,30.2 ± 16.1 µM,2.55 ± 0.64 µM,26%,95%,,,,,
"COc1ccc(OC)c(-n2nnc(C(=O)Nc3cc(OC(=O)c4nnn(-c5cc(OC)ccc5OC)c4C)cc(C(C)(C)C)c3)c2C)c1 [D13, 3-(tert-butyl)-5-(1-(2,5-dimethoxyphenyl)-5-methyl-1H-1,2,3-triazole-4-carboxamido)phenyl 1-(2,5-dimethoxyphenyl)-5-methyl-1H-1,2,3-triazole-4-carboxylate]",,,> 30 µM,,0.83 ± 0.11 µM,0.15 µM,68%,93%,> 30 µM,,,,
"COc1ccc(OC)c(-n2nnc(C(=O)Nc3cc(OCCCCI)cc(C(C)(C)C)c3)c2C)c1 [D17, N-(3-(tert-butyl)-5-(4-iodobutoxy)phenyl)-1-(2,5-dimethoxyphenyl)-5-methyl-1H-1,2,3-triazole-4-carboxamide]",50%,0.18 µM,> 30 µM,,0.066 ± 0.007 µM,0.0088 ± 0.003 µM,112%,120%,,,,,
COc1ccc(OC)c(-n2nnc(C(=O)Nc3cc(OCCCN4CCN(C)CC4)cc(C(C)(C)C)c3)c2C)c1 [D18],,,> 30 µM,,5.32 µM,3.73 ± 0.3 µM,105%,126%,> 30 µM,,,,
C#CCCCOc1cc(NC(=O)c2nnn(-c3cc(OC)ccc3OC)c2C)cc(C(C)(C)C)c1 [D19],25%,0.024 µM,> 30 µM,,0.19 µM,0.032 ± 0.007 µM,107%,116%,,,,,
CCCCCCCCOc1cc(NC(=O)c2nnn(-c3cc(OC)ccc3OC)c2C)cc(C(C)(C)C)c1 [D20],42%,1 µM,> 30 µM,,11.5 ± 2.81 µM,0.82 ± 0.12 µM,35%,104%,,,,,
"COc1ccc(OC)c(-n2nnc(C(=O)Nc3cc(OCCCCCCCCI)cc(C(C)(C)C)c3)c2C)c1 [D21, N-(3-(tert-butyl)-5-((8-iodooctyl)oxy)phenyl)-1-(2,5-dimethoxyphenyl)-5-methyl-1H-1,2,3-triazole-4-carboxamide]",59%,1.09 ± 0.31 µM,> 30 µM,,2.7 µM,0.33 µM,82%,92%,,,,,
COc1ccc(OC)c(-n2nnc(C(=O)Nc3cc(OCCCCCCCCCl)cc(C(C)(C)C)c3)c2C)c1 [D24],58%,0.57 µM,> 30 µM,,2.69 ± 0.93 µM,1.07 ± 0.43 µM,46%,53%,,,,,
COc1ccc(OC)c(-n2nnc(C(=O)Nc3cc(OCCCCCCCC=O)cc(C(C)(C)C)c3)c2C)c1 [D26],77%,1.13 ± 0.36 µM,> 30 µM,,1.28 ± 0.28 µM,0.24 µM,189%,111%,,,,,
